According to patent publication US20070031511A1, “Method of treatment” (priority 2003, published 2007):

Columns and labels:
[1] = system: IMGE-5 cells; assay: IMGE-5 cell proliferation, [3H]-thymidine incorporation; assay type: cell-based, mice; settings: IMGE cells, thymidine uptake; best fit at saturating concentration
Method: In some cases cell proliferation was also measured by [^3H]-thymidine incorporation as described previously (Oiry et al., 2000). Briefly, IMGE-5 cells (10^5/well) were seeded in 24-well plates in medium containing 10% FBS and 1 unit/ml γ-interferon. On the next day cells were serum starved and shifted to 39° C. for 24 hr. Cells were then incubated with or without various compounds at 39° C. for 17 h in medium supplemented with 0.2% bovine serum albumin only. Cells were incubated with 0.5 μCi of [^3H] thymidine in the same medium at 39° C. for 4 h, washed twice with PBS (2.7 mM KCl, 142 mM NaCl, 1.5 mM KH2PO4, 10 mM Na2HPO4, pH 6.95) containing 0.2% bovine serum albumin and incubated at 4° C. for 30 min with 5% trichloroacetic acid. Finally cells were washed with 95% ethanol to remove unincorporated [^3H] thymidine, and lysed with 1 M NaOH. Lysates were transferred to counting vials and neutralized with 1M HCl. The radioactivity of each lysate was counted in a β-counter after the addition of 10 ml of Pico-fluor 40 solution (Packard, Meriden, Conn.).
In some experiments IMGE-5 cells were seeded in a 96-well plate at a density of 3-5×10^3 cells/well in.DMEM containing 10% FBS, and cultured at 33° C.. On the following day, the cells were serum-starved at 33° C. for 24 h. […] The cells were cultured at 39° C. for 24 h, and then harvested using a NUNC cell harvester. The amount of ^3H-thymidine incorporated through DNA synthesis was detected with a β-counter (Packard, Meriden, Conn.). […]

[2] = system: IMGE-5 gastric epithelial cells; assay: Ggly-stimulated inositol phosphate production in IMGE-5 cells; assay type: cell-based, mice
Method: Intracellular inositol phosphate production was determined as described previously (Qian et al, 1993). IMGE-5 cells (10^5 cells/ml) were plated in 24-multiwell culture plates in DMEM supplemented with 10% FBS, 200 IU/ml penicillin and 200 μg/ml streptomycin. 24 h later, cells were incubated with DMEM supplemented with antibiotics and Myo-[2-^3H]inositol (2.5 μCi/well) and shifted to 39° C. for 16 h. Cells were then washed with pre-warmed DMEM and incubated (20-30 minutes, 37° C.) with DMEM supplemented with 20 mM LiCl. Loaded cells were then washed in 1 ml of IP buffer (135 mM NaCl, 20 mM N-(2-hydroxyethyl)piperazine-N′-(2-ethanesulfonic acid), 2 mM CaCl2, 1.2 mM MgSO4, 1 mM ethylene glycol-bis(2-aminoethylether)-N,N,N′,N′-tetraacetic acid, 10 mM LiCl, and 0.5% bovine serum albumin, pH 7.45) and incubated with or without agonist in a final volume of 0.5 ml of IP buffer. After 1-h incubation at 37° C., the reaction was stopped by removing the incubation medium and adding 1 ml of a mixture of ethanol/HCl (2000:1; v/v). One ml of each aliquot was applied to a column containing 1.6 ml of a 1:2 (v/v) Dowex AG-1-X8 anion exchange resin in distilled water. […] The radioactivity of each eluate was counted after addition of Complete phase combining system solution (Amersham, UK). […]
Ggly-stimulated inositol phosphate production was measured in HT29 human colorectal carcinoma cells.

[3] = system: rectal mucosa; assay: Proliferation in the rectal mucosa of rectally defunctioned rats (metaphase-arrested cells); assay type: in vivo; settings: colloidal bismuth subcitrate 135 mg/kg/12 hours oral gavage 5 days per week, 4 weeks; Ggly 2.5 nmol/kg/hr
Method: DFO (400 mg/kg) was administered intraperitoneally thrice weekly, and bismuth ions were administered as colloidal bismuth subcitrate (135 mg/kg/12 hours) by oral gavage 5 days per week. After 4 weeks, the rats were injected with vincristine to arrest cycling cells in metaphase, and sacrificed 3 hrs later. Crypt heights in the rectal mucosa, and the number of metaphase arrested cells per crypt, were then determined microscopically.

[4] = biological target: T1, CCK-2 receptor (Homo sapiens, UniProt P32239); assay: Gamide-stimulated proliferation in CHO cells stably transfected with the CCK-2 receptor; assay type: cell-based; design: expressed in transfected cells; host or cells: CHO
T1 sequence (P32239 1-447): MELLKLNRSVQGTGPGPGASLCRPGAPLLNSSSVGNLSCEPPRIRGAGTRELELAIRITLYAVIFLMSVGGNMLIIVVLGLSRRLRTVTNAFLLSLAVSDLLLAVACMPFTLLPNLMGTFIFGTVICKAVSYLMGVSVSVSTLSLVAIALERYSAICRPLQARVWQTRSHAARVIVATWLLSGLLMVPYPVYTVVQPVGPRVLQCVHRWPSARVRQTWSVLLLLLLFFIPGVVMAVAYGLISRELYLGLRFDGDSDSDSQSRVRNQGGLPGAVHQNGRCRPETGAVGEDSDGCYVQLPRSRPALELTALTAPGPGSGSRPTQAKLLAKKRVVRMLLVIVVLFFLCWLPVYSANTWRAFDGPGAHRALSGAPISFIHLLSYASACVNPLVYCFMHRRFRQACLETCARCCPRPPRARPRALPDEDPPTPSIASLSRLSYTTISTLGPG

Row | Effect on Gamide-stimulated proliferation [4] | Compound | S (%), maximum % stimulation [1] | Ggly stimulation of inositol phosphate production compared to the control [2] | Effect on stimulation of proliferation of the rectal mucosa by Ggly [3]
1 | – | Ggly: glycine-extended gastrin17, 18 amino acid non-amidated gastrin, SEQ ID NO:4, residues 55-72 of progastrin (XGPWLEEEEEAYGWMDFG; (1)..(1) pyroglutamate; listed as Homo sapiens) | 37.3% | 110% | –
2 | did not significantly inhibit | [Bi+3] [bismuth ions] | – | – | completely abolished
